Measurements reported in US7476517B2, “Virus like particles, their preparation and their use preferably in pharmaceutical screening and functional genomics” (Evotec AG, priority 1999, dated 2009).

target: T1, human ETA receptor (Homo sapiens, UniProt P25101); assay: ETA receptor binding assay with FIDA analysis; details: 1 μM non-labelled ligand; 2 nM TAMRA-labeled endothelin-1; membrane vesicles from CHO cells or VLPs from Sf9 cells; 30 minutes at room temperature
T1 construct: Flag; made in house; host or cells: Sf9 insect cells co-infected with recombinant baculoviruses; VLPs pelleted from the culture supernatant
T1 sequence (P25101 21-427): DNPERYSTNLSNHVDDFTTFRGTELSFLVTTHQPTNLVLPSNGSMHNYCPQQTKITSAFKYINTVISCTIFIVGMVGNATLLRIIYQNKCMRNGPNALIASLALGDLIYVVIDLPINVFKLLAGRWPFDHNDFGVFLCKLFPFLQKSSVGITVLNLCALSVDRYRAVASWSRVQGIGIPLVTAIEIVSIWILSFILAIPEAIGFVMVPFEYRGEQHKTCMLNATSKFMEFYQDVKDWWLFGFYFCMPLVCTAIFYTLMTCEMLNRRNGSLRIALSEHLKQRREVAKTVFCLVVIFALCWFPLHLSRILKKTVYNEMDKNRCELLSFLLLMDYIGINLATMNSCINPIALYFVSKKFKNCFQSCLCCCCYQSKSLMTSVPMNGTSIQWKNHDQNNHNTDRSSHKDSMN
Method: After 30 minutes incubation at room temperature the mixture was analysed by FIDA using a beam scanner and 543 nm laser light for excitation.

competition with TAMRA-labeled endothelin-1 for binding to the ETA receptor	Compound
non-competing ligand	big endothelin-1
competing ligand	endothelin-1

Compound	competition with TAMRA-labeled endothelin-1 for binding to the ETA receptor
C[C@H](N)C(=O)NCC(=O)N[C@H]1CSSC[C@@H](C(=O)O)NC(=O)[C@H](CO)NC(=O)[C@H]([C@@H](C)O)NC(=O)[C@H](Cc2ccccc2)NC(=O)[C@H]([C@@H](C)O)NC(=O)[C@H](CCCCN)NC(=O)[C@H](Cc2c[nH]c3ccccc23)NC(=O)[C@H](Cc2ccccc2)NC(=O)[C@H](Cc2ccccc2)NC(=O)[C@H](CC(N)=O)NC(=O)[C@H](CCCCN)NC1=O [somatostatin-14]	non-competing ligand
